Key:
[1] = system: K+ currents of small diameter dorsal-root ganglion neuron; test: voltage dependence of steady state of inactivation of K+ currents in sdDRGn; assay type: cell-based, rat; conditions: sdDRGn
From the text: (§1) One can observe a shift to hyperpolarized values during the nitenin treatment. The relationships were better fit with the sum of two Boltzmann functions, showing that in both conditions there are two components: one more hyperpolarized component (component 1) and one other more depolarized component (component 2).
as §1, with “treatment with the compound of formula VI.” for “nitenin treatment.”
as §1, with “treatment with the compound of formula VII.” for “nitenin treatment.”
as §1, with “treatment with the compound of formula VIII.” for “nitenin treatment.”
For the electrophysiological recordings of the ex vivo material, voltage-clamp recordings were performed on neurons isolated from rat DRGs (and TGs). Recordings were performed from the soma that often contained the proximal fraction of axon, 1 hour after the end of the cell isolation process (includes enzymatic and mechanical treatment).

[2] = system: voltage activated K+ currents (Islow, Ifast) of small diameter Dorsal Root Ganglia neurons (sdDRGns); test: whole-cell voltage-clamp of voltage activated K+ currents in sdDRGns; assay type: cell-based, rat

## O=C1OC(CO)CC1=CCCc1ccoc1 (centres unmarked) [compound of formula VIII-A]
[1]; 6.5 μg/ml, 29.4 μM, control −18.1
  Vh2 of steady state inactivation: −35.5 mV
[1]; 6.5 μg/ml, 29.4 μM, control −53.6
  Vh1 of steady state inactivation: −88.9 mV
[2]; 6.5 μg/ml, 29.4 μM
  time constant τ of the sensitive current (current subtraction, single-exponential fit): ~450 ms

## C/C(=C\C1OC(=O)CC1O)CCCc1ccoc1 (centres unmarked) [compound of formula VII]
[1]; 0.1 μg/ml, 399 nM, control −13.7
  Vh2 of steady state inactivation: −32.4 mV
[1]; 0.1 μg/ml, 399 nM, control −64.1
  Vh1 of steady state inactivation: −92.6 mV

## C=CC1OC(=O)CC1O (centres unmarked) [compound of formula VI]
[1]; 10 μg/ml, 77.9 μM, control −23.9
  Vh2 of steady state inactivation: −40.5 mV
[1]; 10 μg/ml, 77.9 μM, control −91.0
  Vh1 of steady state inactivation: −102.9 mV
[2]; 10 μg/ml, 77.9 μM
  time constant τ of the sensitive current (current subtraction, single-exponential fit): ~795 ms
